ChEMBL document CHEMBL1201861, “Genomics of Drug Sensitity in Cancer screening data, Wellcome Trust Sanger Institute”
One block for each compound: values may come before it.

Columns and labels:
Experiment in all cases: cells
[1] = system: COLO-800; format: functional, cell-based, Homo sapiens; conditions: Homo sapiens, COLO-800;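 note: growth inhibition of COLO-800 cells, read out with a cell viability assay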
Description: SANGER: Inhibition of human COLO-800 cell growth in a cell viability assay.

[2] = system: D-502MG; format: functional, cell-based, Homo sapiens; conditions: Homo sapiens, D-502MG
Description: SANGER: Inhibition of human D-502MG cell growth in a cell viability assay.

[3] = system: EM-2; format: functional, cell-based, Homo sapiens; conditions: Homo sapiens, EM-2;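 note: growth inhibition of EM-2 cells, read out with a cell viability assay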
Description: SANGER: Inhibition of human EM-2 cell growth in a cell viability assay.

[4] = system: ETK-1; format: functional, cell-based, Homo sapiens; conditions: Homo sapiens, ETK-1;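 note: growth inhibition of human ETK-1 cells, read out with a cell viability assay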
Description: SANGER: Inhibition of human ETK-1 cell growth in a cell viability assay.

[5] = system: GAK; format: functional, cell-based, Homo sapiens; conditions: Homo sapiens, GAK;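 note: cell growth inhibition read out by a cell viability assay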
Description: SANGER: Inhibition of human GAK cell growth in a cell viability assay.

[6] = system: GI-1; format: functional, cell-based, Homo sapiens; conditions: Homo sapiens, GI-1;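 note: growth inhibition of human GI-1 cells, measured with a cell viability readout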
Description: SANGER: Inhibition of human GI-1 cell growth in a cell viability assay.

[7] = system: GI-ME-N; format: functional, cell-based, Homo sapiens; conditions: Homo sapiens, GI-ME-N;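 note: growth inhibition of human GI-ME-N cells, read out with a cell viability assay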
Description: SANGER: Inhibition of human GI-ME-N cell growth in a cell viability assay.

[8] = system: HCC1187; format: functional, cell-based, Homo sapiens; conditions: Homo sapiens, HCC1187;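 note: growth inhibition of HCC1187 cells, read out with a cell viability assay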
Description: SANGER: Inhibition of human HCC1187 cell growth in a cell viability assay.

[9] = system: HCE-4; format: functional, cell-based; conditions: Homo sapiens;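 note: cell viability assay measuring inhibition of growth in the human HCE-4 cell line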
Description: SANGER: Inhibition of human HCE-4 cell growth in a cell viability assay.

[10] = system: HCE-T; format: functional, cell-based, Homo sapiens; conditions: Homo sapiens, HCE-T;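 note: cell viability assay read-out, reporting inhibition of HCE-T cell growth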
Description: SANGER: Inhibition of human HCE-T cell growth in a cell viability assay.

[11] = system: HDLM-2; format: functional, cell-based, Homo sapiens; conditions: Homo sapiens, HDLM-2;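 note: cell viability assay measuring suppression of HDLM-2 proliferation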
Description: SANGER: Inhibition of human HDLM-2 cell growth in a cell viability assay.

[12] = system: IA-LM; format: functional, cell-based; conditions: Homo sapiens;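 note: cell viability assay measuring growth inhibition of human IA-LM cells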
Description: SANGER: Inhibition of human IA-LM cell growth in a cell viability assay.

[13] = system: IST-SL1; format: functional, cell-based, Homo sapiens; conditions: Homo sapiens, IST-SL1;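 note: growth inhibition of human IST-SL1 cells, read out with a cell viability assay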
Description: SANGER: Inhibition of human IST-SL1 cell growth in a cell viability assay.

[14] = system: J-RT3-T3-5; format: functional, cell-based, Homo sapiens; conditions: Homo sapiens, J-RT3-T3-5;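 note: cell viability assay measuring growth inhibition of human J-RT3-T3-5 cells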
Description: SANGER: Inhibition of human J-RT3-T3-5 cell growth in a cell viability assay.

[15] = system: KG-1; format: functional, cell-based, Homo sapiens; conditions: Homo sapiens, KG-1;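 note: growth inhibition of KG-1 cells, read out by a cell viability assay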
Description: SANGER: Inhibition of human KG-1 cell growth in a cell viability assay.

[16] = system: KGN; format: functional, cell-based, Homo sapiens; conditions: Homo sapiens, KGN;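 note: growth inhibition of KGN cells, read out with a cell viability assay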
Description: SANGER: Inhibition of human KGN cell growth in a cell viability assay.

[17] = system: KLE; format: functional, cell-based; conditions: Homo sapiens;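 note: growth inhibition of human KLE cells, read out with a cell viability assay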
Description: SANGER: Inhibition of human KLE cell growth in a cell viability assay.

[18] = system: KM12; format: functional, cell-based, Homo sapiens; conditions: Homo sapiens, KM12;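 note: KM12 cell growth inhibition, read out with a cell viability assay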
Description: SANGER: Inhibition of human KM12 cell growth in a cell viability assay.

[19] = system: KURAMOCHI; format: functional, cell-based, Homo sapiens; conditions: Homo sapiens, KURAMOCHI;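 note: growth inhibition of KURAMOCHI cells, read out with a cell viability assay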
Description: SANGER: Inhibition of human KURAMOCHI cell growth in a cell viability assay.

[20] = system: LB2518-MEL; format: functional, cell-based; conditions: Homo sapiens;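 note: growth inhibition of human LB2518-MEL cells, measured with a cell viability assay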
Description: SANGER: Inhibition of human LB2518-MEL cell growth in a cell viability assay.

[21] = system: LXF-289 cell line; format: functional, cell-based; conditions: Homo sapiens
Description: SANGER: Inhibition of human LXF-289 cell growth in a cell viability assay.

[22] = system: MMAC-SF; format: functional, cell-based; conditions: Homo sapiens;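 note: growth inhibition of human MMAC-SF cells, read out with a cell viability assay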
Description: SANGER: Inhibition of human MMAC-SF cell growth in a cell viability assay.

[23] = system: MN-60; format: functional, cell-based, Homo sapiens; conditions: Homo sapiens, MN-60;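 note: growth inhibition of the MN-60 cell line, determined with a cell viability assay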
Description: SANGER: Inhibition of human MN-60 cell growth in a cell viability assay.

[24] = system: MS-1; format: functional, cell-based, Homo sapiens; conditions: Homo sapiens, MS-1;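 note: growth inhibition of MS-1 cells, read out by cell viability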
Description: SANGER: Inhibition of human MS-1 cell growth in a cell viability assay.

[25] = system: MZ7-mel; format: functional, cell-based, Homo sapiens; conditions: Homo sapiens, MZ7-mel;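 note: growth inhibition of human MZ7-mel cells, measured by a cell viability assay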
Description: SANGER: Inhibition of human MZ7-mel cell growth in a cell viability assay.

[26] = system: NB5; format: functional, cell-based, Homo sapiens; conditions: Homo sapiens, NB5;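 note: growth inhibition of NB5 cells, read out as cell viability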
Description: SANGER: Inhibition of human NB5 cell growth in a cell viability assay.

[27] = system: NCI-H1355; format: functional, cell-based, Homo sapiens; conditions: Homo sapiens, NCI-H1355;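 note: growth inhibition of human NCI-H1355 cells, read out by a cell viability assay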
Description: SANGER: Inhibition of human NCI-H1355 cell growth in a cell viability assay.

[28] = system: NCI-H226; format: functional, cell-based, Homo sapiens; conditions: Homo sapiens, NCI-H226;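 note: cell viability read-out used to gauge growth inhibition of the cells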
Description: SANGER: Inhibition of human NCI-H226 cell growth in a cell viability assay.

[29] = system: NCI-N87; format: functional, cell-based; conditions: Homo sapiens;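 note: growth inhibition of human NCI-N87 cells, read out with a cell viability assay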
Description: SANGER: Inhibition of human NCI-N87 cell growth in a cell viability assay.

[30] = system: NTERA-2-cl-D1; format: functional, cell-based, Homo sapiens; conditions: Homo sapiens, NTERA-2-cl-D1;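 note: inhibition of cell growth, measured with a cell viability assay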
Description: SANGER: Inhibition of human NTERA-S-cl-D1 cell growth in a cell viability assay.

[31] = system: OCI-AML2; format: functional, cell-based, Homo sapiens; conditions: Homo sapiens, OCI-AML2;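 note: growth inhibition of OCI-AML2 cells, read out with a cell viability assay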
Description: SANGER: Inhibition of human OCI-AML2 cell growth in a cell viability assay.

[32] = system: OCUB-M; format: functional, cell-based; conditions: Homo sapiens;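 note: growth inhibition of the cancer cell line, read out through a cell viability assay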
Description: SANGER: Inhibition of human OCUB-M cell growth in a cell viability assay.

[33] = system: OVCAR-4; format: functional, cell-based, Homo sapiens; conditions: Homo sapiens, OVCAR-4;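 note: growth inhibition of human OVCAR-4 cells, measured with a cell viability assay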
Description: SANGER: Inhibition of human OVCAR-4 cell growth in a cell viability assay.

[34] = system: PC-3; format: functional, cell-based; conditions: Homo sapiens;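 note: cell viability assay measuring growth inhibition of PC-3 cells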
Description: SANGER: Inhibition of human PC-3 cell growth in a cell viability assay.

[35] = system: QIMR-WIL; format: functional, cell-based, Homo sapiens; conditions: Homo sapiens, QIMR-WIL;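 note: growth inhibition of QIMR-WIL cells, read out with a cell viability assay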
Description: SANGER: Inhibition of human QIMR-WIL cell growth in a cell viability assay.

[36] = system: RXF 393; format: functional, cell-based, Homo sapiens; conditions: Homo sapiens, RXF 393;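 note: growth inhibition of human RXF 393 cells, read out with a cell viability assay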
Description: SANGER: Inhibition of human RXF393 cell growth in a cell viability assay.

[37] = system: Ramos-2G6-4C10; format: functional, cell-based, Homo sapiens; conditions: Homo sapiens, Ramos-2G6-4C10;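 note: growth inhibition of the cell line, measured by a cell viability read-out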
Description: SANGER: Inhibition of human Ramos-2G6-4C10 cell growth in a cell viability assay.

[38] = system: SH-4; format: functional, cell-based; conditions: Homo sapiens;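 note: growth inhibition of SH-4 cells, read out with a cell viability assay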
Description: SANGER: Inhibition of human SH-4 cell growth in a cell viability assay.

[39] = system: SNB-75; format: functional, cell-based, Homo sapiens; conditions: Homo sapiens, SNB-75;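 note: cell viability assay measuring growth inhibition of human SNB-75 cells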
Description: SANGER: Inhibition of human SNB75 cell growth in a cell viability assay.

[40] = system: SNU-C2B; format: functional, cell-based; conditions: Homo sapiens;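 note: cell viability readout used to measure compound-driven suppression of SNU-C2B cell proliferation, IC50 marking half-maximal growth inhibition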
Description: SANGER: Inhibition of human SNU-C2B cell growth in a cell viability assay.

[41] = system: SW 962; format: functional, cell-based, Homo sapiens; conditions: Homo sapiens, SW 962;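 note: growth inhibition of human SW962 cells, read out by a cell viability assay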
Description: SANGER: Inhibition of human SW962 cell growth in a cell viability assay.

[42] = system: A4-Fuk; format: functional, cell-based, Homo sapiens; conditions: Homo sapiens, A4-Fuk;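 note: growth inhibition of A4-Fuk cells, read out by a cell viability assay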
Description: SANGER: Inhibition of human A4-Fuk cell growth in a cell viability assay.

[43] = system: U-266; format: functional, cell-based, Homo sapiens; conditions: Homo sapiens, U-266
Description: SANGER: Inhibition of human U-266 cell growth in a cell viability assay.

[44] = system: UACC-257; format: functional, cell-based, Homo sapiens; conditions: Homo sapiens, UACC-257
Description: SANGER: Inhibition of human UACC-257 cell growth in a cell viability assay.

[45] = system: no-11; format: functional, cell-based, Homo sapiens; conditions: Homo sapiens;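 note: growth inhibition of human NO-11 cells, read out with a cell viability assay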
Description: SANGER: Inhibition of human no-11 cell growth in a cell viability assay.

[46] = system: COLO-668; format: functional, cell-based, Homo sapiens; conditions: Homo sapiens, COLO-668
Description: SANGER: Inhibition of human COLO-668 cell growth in a cell viability assay.

[47] = system: EW-18; format: functional, cell-based, Homo sapiens; conditions: Homo sapiens, EW-18; read-out: IC50;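 note: growth inhibition of EW-18 cells, read out by a cell viability assay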
Description: SANGER: Inhibition of human EW-18 cell growth in a cell viability assay.

[48] = system: COR-L88; format: functional, cell-based, Homo sapiens; conditions: Homo sapiens, COR-L88;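 note: growth inhibition of COR-L88 cells, read out with a cell viability assay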
Description: SANGER: Inhibition of human COR-L88 cell growth in a cell viability assay.

[49] = system: CTV-1; format: functional, cell-based, Homo sapiens; conditions: Homo sapiens, CTV-1;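 note: growth inhibition of the cell line, read out with a cell viability assay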
Description: SANGER: Inhibition of human CTV-1 cell growth in a cell viability assay.

[50] = system: KU812 cell line; format: functional, cell-based, Homo sapiens; conditions: Homo sapiens, KU812;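 note: growth inhibition of KU812 cells, read out with a cell viability assay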
Description: SANGER: Inhibition of human KU812 cell growth in a cell viability assay.

[51] = system: KY821; format: functional, cell-based, Homo sapiens; conditions: Homo sapiens, KY821;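 note: growth inhibition of human KY821 cells, read out by a cell viability assay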
Description: SANGER: Inhibition of human KY821 cell growth in a cell viability assay.

SMILES: O=C(NCCCNc1nc(Nc2cccc(NC(=O)N3CCCC3)c2)ncc1I)c1cccs1 [BX-795]
IC50 [1]: 2.05 µM | IC50 [2]: > 5 µM | IC50 [3]: 2.35 µM | IC50 [4]: 4.52 µM | IC50 [5]: > 5 µM | IC50 [6]: > 5 µM | IC50 [7]: 1.87 µM | IC50 [8]: 2.9 µM | IC50 [9]: > 5 µM | IC50 [10]: > 5 µM | IC50 [11]: > 5 µM | IC50 [12]: 4.85 µM | IC50 [13]: 2.32 µM | IC50 [14]: > 5 µM | IC50 [15]: 2.28 µM | IC50 [16]: 2.23 µM | IC50 [17]: > 5 µM | IC50 [18]: 3.3 µM | IC50 [19]: > 5 µM | IC50 [20]: > 5 µM | IC50 [21]: 0.657 µM | IC50 [22]: > 5 µM | IC50 [23]: 3.59 µM | IC50 [24]: > 5 µM | IC50 [25]: > 5 µM | IC50 [26]: 2.94 µM | IC50 [27]: > 5 µM | IC50 [28]: > 5 µM | IC50 [29]: > 5 µM | IC50 [30]: 1.08 µM | IC50 [31]: > 5 µM | IC50 [32]: > 5 µM | IC50 [33]: > 5 µM | IC50 [34]: 4.17 µM | IC50 [35]: 2.29 µM | IC50 [36]: 3.41 µM | IC50 [37]: 2.24 µM | IC50 [38]: > 5 µM | IC50 [39]: > 5 µM | IC50 [40]: > 5 µM | IC50 [41]: 2.34 µM | IC50 [42]: > 5 µM | IC50 [43]: > 5 µM | IC50 [44]: > 5 µM | IC50 [45]: > 5 µM | IC50 [46]: > 5 µM

IC50 [4]: 0.377 µM | IC50 [47]: 0.322 µM | IC50 [6]: 0.319 µM | IC50 [18]: 0.0928 µM | IC50 [21]: 0.33 µM | IC50 [29]: > 0.512 µM | IC50 [30]: 0.209 µM | IC50 [31]: > 0.512 µM | IC50 [34]: > 0.512 µM | IC50 [41]: > 0.512 µM | IC50 [45]: > 0.512 µM
SMILES: CO[C@@H]1[C@H](N(C)C(=O)c2ccccc2)C[C@H]2O[C@]1(C)n1c3ccccc3c3c4c(c5c6ccccc6n2c5c31)C(=O)NC4 [MIDOSTAURIN]

SMILES: NC1(c2ccc(-c3nc4ccn5c(=O)[nH]nc5c4cc3-c3ccccc3)cc2)CCC1 [MK-2206]
IC50 [1]: > 4 µM | IC50 [48]: > 4 µM | IC50 [49]: > 4 µM | IC50 [2]: > 4 µM | IC50 [3]: 0.979 µM | IC50 [4]: > 4 µM | IC50 [47]: 2.42 µM | IC50 [5]: > 4 µM | IC50 [6]: > 4 µM | IC50 [7]: > 4 µM | IC50 [8]: > 4 µM | IC50 [9]: > 4 µM | IC50 [10]: > 4 µM | IC50 [11]: > 4 µM | IC50 [12]: > 4 µM | IC50 [13]: > 4 µM | IC50 [14]: 0.744 µM | IC50 [15]: > 4 µM | IC50 [16]: > 4 µM | IC50 [17]: > 4 µM | IC50 [18]: > 4 µM | IC50 [50]: > 4 µM | IC50 [19]: > 4 µM | IC50 [51]: > 4 µM | IC50 [20]: > 4 µM | IC50 [21]: 1.17 µM | IC50 [23]: 2.3 µM | IC50 [24]: > 4 µM | IC50 [25]: > 4 µM | IC50 [26]: > 4 µM | IC50 [27]: > 4 µM | IC50 [28]: > 4 µM | IC50 [29]: > 4 µM | IC50 [30]: > 4 µM | IC50 [31]: > 4 µM | IC50 [32]: 0.71 µM | IC50 [33]: > 4 µM | IC50 [34]: > 4 µM | IC50 [35]: 1.49 µM | IC50 [36]: 2.6 µM | IC50 [37]: 1.34 µM | IC50 [38]: > 4 µM | IC50 [39]: > 4 µM | IC50 [40]: > 4 µM | IC50 [41]: > 4 µM | IC50 [42]: 0.469 µM | IC50 [43]: > 4 µM | IC50 [44]: > 4 µM | IC50 [45]: > 4 µM | IC50 [46]: > 4 µM

SMILES: CS(=O)(=O)N1CCN(Cc2cc3nc(-c4cccc5[nH]ncc45)nc(N4CCOCC4)c3s2)CC1 [PICTILISIB]
IC50 [1]: > 4 µM | IC50 [2]: 2.32 µM | IC50 [3]: 2.51 µM | IC50 [4]: > 4 µM | IC50 [5]: > 4 µM | IC50 [6]: > 4 µM | IC50 [7]: > 4 µM | IC50 [8]: > 4 µM | IC50 [9]: > 4 µM | IC50 [10]: > 4 µM | IC50 [11]: 0.949 µM | IC50 [12]: > 4 µM | IC50 [13]: > 4 µM | IC50 [14]: > 4 µM | IC50 [15]: > 4 µM | IC50 [16]: > 4 µM | IC50 [17]: > 4 µM | IC50 [18]: > 4 µM | IC50 [19]: > 4 µM | IC50 [20]: > 4 µM | IC50 [21]: 0.448 µM | IC50 [23]: > 4 µM | IC50 [24]: > 4 µM | IC50 [25]: > 4 µM | IC50 [26]: 0.957 µM | IC50 [27]: > 4 µM | IC50 [28]: > 4 µM | IC50 [29]: 2.13 µM | IC50 [31]: > 4 µM | IC50 [32]: > 4 µM | IC50 [33]: > 4 µM | IC50 [34]: > 4 µM | IC50 [35]: 0.865 µM | IC50 [36]: > 4 µM | IC50 [37]: 1.61 µM | IC50 [38]: > 4 µM | IC50 [39]: 2.02 µM | IC50 [40]: > 4 µM | IC50 [41]: 3.73 µM | IC50 [42]: 1.3 µM | IC50 [43]: > 4 µM | IC50 [44]: > 4 µM | IC50 [45]: > 4 µM | IC50 [46]: > 4 µM

SMILES: CN(C)CCOc1ccc(-c2nc(-c3ccncc3)c(-c3ccc4c(c3)CC/C4=N\O)[nH]2)cc1 [SB590885]
IC50 [1]: > 5 µM | IC50 [48]: > 5 µM | IC50 [49]: > 5 µM | IC50 [2]: > 5 µM | IC50 [3]: > 5 µM | IC50 [4]: > 5 µM | IC50 [47]: > 5 µM | IC50 [5]: > 5 µM | IC50 [6]: > 5 µM | IC50 [7]: > 5 µM | IC50 [8]: > 5 µM | IC50 [9]: > 5 µM | IC50 [10]: > 5 µM | IC50 [11]: > 5 µM | IC50 [12]: > 5 µM | IC50 [13]: > 5 µM | IC50 [14]: > 5 µM | IC50 [15]: > 5 µM | IC50 [16]: > 5 µM | IC50 [17]: > 5 µM | IC50 [18]: > 5 µM | IC50 [50]: > 5 µM | IC50 [19]: > 5 µM | IC50 [51]: > 5 µM | IC50 [20]: > 5 µM | IC50 [21]: > 5 µM | IC50 [23]: > 5 µM | IC50 [24]: > 5 µM | IC50 [25]: > 5 µM | IC50 [26]: > 5 µM | IC50 [27]: > 5 µM | IC50 [28]: > 5 µM | IC50 [29]: > 5 µM | IC50 [30]: > 5 µM | IC50 [31]: > 5 µM | IC50 [32]: > 5 µM | IC50 [33]: > 5 µM | IC50 [34]: > 5 µM | IC50 [35]: > 5 µM | IC50 [36]: > 5 µM | IC50 [37]: > 5 µM | IC50 [38]: 0.812 µM | IC50 [39]: > 5 µM | IC50 [40]: > 5 µM | IC50 [41]: > 5 µM | IC50 [42]: > 5 µM | IC50 [43]: > 5 µM | IC50 [44]: 1.13 µM | IC50 [45]: > 5 µM | IC50 [46]: > 5 µM
